{
  "source": "patent US20220144881A1",
  "about": "“COMPOUNDS AND METHODS FOR MANUFACTURE OF HYPOMETHYLATING AGENTS” (priority 2020, published 2022)",
  "test": "Effect of relative humidity on polymorphic forms of Compound 10 (monitored by XRPD)",
  "format": "physicochemical",
  "conditions": "for Stability at 0% RH: relevant condition for storage and further processing; for Form conversion at 33% RH: Form A only after at least 2 weeks; for Description of polymorph (stability / conditions of formation): RH = relative humidity; for Form conversion at 97% RH and above: RH of 97% and above",
  "description": "Studies were performed to identify the different polymorphic forms of Compound 10 drug substance. Seven polymorphs of Compound 10 in total have been identified (TABLE 1).\nCompound 10 is hygroscopic and is therefore packaged and stored at conditions that inhibit moisture uptake. Experiments were performed to understand the effect of relative humidity on various polymorphic forms of Compound 10. Form A and Form B were subjected to increasing relative humidity (TABLE 2) and monitored using XRPD to evaluate polymorphism.\nForms A, B, C, and D were characterized by X-ray powder diffraction (XRPD). XRPD diffractograms were collected with a PANalytical X'Pert PRO MPD® diffractometer using an incident beam of Cu radiation produced using an Optix long, fine-focus source. An elliptically graded multilayer mirror was used to focus Cu Kα X-rays through the specimen and onto the detector. Prior to the analysis, a silicon specimen (NIST SRM 640e) was analyzed to verify the observed position of the Si 111 peak is consistent with the NIST-certified position. For the determination of solid forms under the environmental conditions surveyed in EXAMPLE 6, samples of Compound 10 were stored within environmental chambers maintained at specific relative humidity conditions. A specimen of the sample was sandwiched between 3-μm-thick Etnom® films within these environmental chambers. Once prepared, the test article was removed from the environmental chamber and analyzed in transmission geometry without undue delay. A beam-stop, short antiscatter extension, and antiscatter knife edge were used to minimize the background generated by air. Soller slits for the incident and diffracted beams were used to minimize broadening from axial divergence. Diffraction patterns were collected using a scanning position-sensitive detector (X'Celerator) located 240 mm from the specimen and Data Collector software v. 2.2b.",
  "data": [
    {"smiles": "Nc1ncn([C@H]2C[C@H](OP(=O)([O-])OC[C@H]3O[C@@H](n4cnc5c(=O)[nH]c(N)nc54)C[C@@H]3O)[C@@H](CO)O2)c(=O)n1.[Na+]", "note": "[Form B, guadecitabine sodium]", "values": [
      {"measurement": "Stability at 0% RH", "value": "stable"},
      {"measurement": "Form conversion at 33% RH", "setting": "33% RH", "value": "converted to Form H"},
      {"measurement": "Polymorph observed at 97% RH", "setting": "97% relative humidity, XRPD", "value": "Mesophase"},
      {"measurement": "Description of polymorph (stability / conditions of formation)", "value": "Stable form at 0% RH"},
      {"measurement": "Form obtained on increasing RH", "setting": "RH increased beyond 33%", "value": "formation of Form D"},
      {"measurement": "Form conversion at 97% RH and above", "value": "deliquescence to afford a mesophase"}
    ]},
    {"smiles": "Nc1ncn([C@H]2C[C@H](OP(=O)([O-])OC[C@H]3O[C@@H](n4cnc5c(=O)[nH]c(N)nc54)C[C@@H]3O)[C@@H](CO)O2)c(=O)n1.[Na+]", "note": "[Form K, guadecitabine sodium]", "values": [
      {"measurement": "Description of polymorph (stability / conditions of formation)", "value": "Formed from Form A at 58% RH"},
      {"measurement": "Form conversion at 97% RH and above", "value": "converted to Form L"}
    ]},
    {"smiles": "Nc1ncn([C@H]2C[C@H](OP(=O)([O-])OC[C@H]3O[C@@H](n4cnc5c(=O)[nH]c(N)nc54)C[C@@H]3O)[C@@H](CO)O2)c(=O)n1.[Na+]", "note": "[Form A, guadecitabine sodium]", "values": [
      {"measurement": "Stability at 0% RH", "value": "stable"},
      {"measurement": "Duration of stability at 33% RH", "setting": "33% RH", "value": "at least 2 weeks"},
      {"measurement": "Form conversion at 33% RH", "setting": "33% RH", "value": "converted to Form K"},
      {"measurement": "Description of polymorph (stability / conditions of formation)", "value": "Stable form at 0% RH"}
    ]},
    {"smiles": "Nc1ncn([C@H]2C[C@H](OP(=O)([O-])OC[C@H]3O[C@@H](n4cnc5c(=O)[nH]c(N)nc54)C[C@@H]3O)[C@@H](CO)O2)c(=O)n1.[Na+]", "note": "[Form H, guadecitabine sodium]", "values": [
      {"measurement": "Description of polymorph (stability / conditions of formation)", "value": "Formed from Form B at 33% RH"}
    ]},
    {"smiles": "Nc1ncn([C@H]2C[C@H](OP(=O)([O-])OC[C@H]3O[C@@H](n4cnc5c(=O)[nH]c(N)nc54)C[C@@H]3O)[C@@H](CO)O2)c(=O)n1.[Na+]", "note": "[Compound 10, guadecitabine sodium]", "values": [
      {"measurement": "Hygroscopicity", "value": "hygroscopic"}
    ]},
    {"smiles": "Nc1ncn([C@H]2CC(OP(=O)([O-])OC[C@H]3O[C@@H](n4cnc5c(=O)[nH]c(N)nc54)CC3O)[C@@H](CO)O2)c(=O)n1.[Na+]", "note": "(some centres unmarked) [Form L, guadecitabine sodium]", "values": [
      {"measurement": "Description of polymorph (stability / conditions of formation)", "value": "Formed from Form A at 97% RH"}
    ]},
    {"smiles": "Nc1ncn([C@H]2CC(OP(=O)([O-])OC[C@H]3O[C@@H](n4cnc5c(=O)[nH]c(N)nc54)CC3O)[C@@H](CO)O2)c(=O)n1.[Na+]", "note": "(some centres unmarked) [Form D, guadecitabine sodium]", "values": [
      {"measurement": "Description of polymorph (stability / conditions of formation)", "value": "Formed from Form B at 58% RH"}
    ]},
    {"smiles": "Nc1ncn([C@H]2C[C@H](OP(=O)([O-])OC[C@H]3O[C@@H](n4cnc5c(=O)[nH]c(N)nc54)C[C@@H]3O)[C@@H](CO)O2)c(=O)n1.[Na+]", "note": "[Form C, guadecitabine sodium]", "values": [
      {"measurement": "Description of polymorph (stability / conditions of formation)", "value": "Formed from ethanolic slurry of Form A"}
    ]}
  ]
}
